Assay results taken from patent US20130030025A1, “USE OF POTASSIUM CHANNEL BLOCKERS TO TREAT CEREBRAL PALSY” (priority 2011, published 2013).

Key:
[1] = Body weight of animals after MCAO; format: in vivo, Sprague Dawley rats
Procedure: Animals: 45 male Sprague Dawley Rats, 300-400 g (obtained from Charles River Laboratories, which arrived 7-10 days before surgery at 250-275 g) were used.
Treatment groups: Dosing was started 4 weeks after pMCAO surgery. During these 4 weeks, weekly behavioral assessments, as defined below, were performed. Two dose levels of 4-AP plus vehicle control were assessed, with treatment starting at 4 weeks after ischemic event. All dosing was via gastric gavage, volume not to exceed 2 mL/kg. Animals were given the first dose and behavioral assessments were performed starting 60 minutes after dosing. Animals then received the second dose that day at the appropriate time and b.i.d (preferably every 12 hours) thereafter for 2 more days (3 total days of dosing, 5 total doses). One hour after the 5th dose, animals were subjected to behavioral assessments as defined below. Following the final behavioral assessment, drug was withdrawn for 10 or 11 days, behavior was re-assessed, and then animals were re-challenged with a cross-over treatment (Phase II of Table 1B) as described in Tables 1A, 1B, followed by the same behavioral testing and dosing regimen. This cross-over was repeated one more time as well (Phase III of Table 1B) (see FIG. 2).

[2] = system: middle cerebral artery occlusion (MCAO) in rats; test: Cylinder test, total movement after MCAO; format: in vivo, Sprague Dawley rats
Procedure: The Y axis represents the behavioral score. […] Treatment groups: Dosing was started 4 weeks after pMCAO surgery. During these 4 weeks, weekly behavioral assessments, as defined below, were performed. Two dose levels of 4-AP plus vehicle control were assessed, with treatment starting at 4 weeks after ischemic event. All dosing was via gastric gavage, volume not to exceed 2 mL/kg. Animals were given the first dose and behavioral assessments were performed starting 60 minutes after dosing. Animals then received the second dose that day at the appropriate time and b.i.d (preferably every 12 hours) thereafter for 2 more days (3 total days of dosing, 5 total doses). One hour after the 5th dose, animals were subjected to behavioral assessments as defined below. Following the final behavioral assessment, drug was withdrawn for 10 or 11 days, behavior was re-assessed, and then animals were re-challenged with a cross-over treatment (Phase II of Table 1B) as described in Tables 1A, 1B, followed by the same behavioral testing and dosing regimen. This cross-over was repeated one more time as well (Phase III of Table 1B) (see FIG. 2). Behavioral test details: Behavioral evaluations were done by investigators blinded to treatment assignment. As described above, behavioral assessments were timed exactly with dosing times. Animals were given the first dose, behavioral assessments were performed starting 60 minutes later, and blood was collected 90 minutes after dosing. Animals then received the second dose that day at the appropriate time and b.i.d (preferably every 12 hours) thereafter for 2 more days (3 total days of dosing, 5 total doses). One hour after the 5th dose, animals were subjected to behavioral testing. Following the final behavioral assessment, drug was withdrawn for 10 or 11 days, behavior was re-assessed, and then animals were re-challenged with a cross-over treatment as described in Tables 1A, 1B, and FIG. 2, followed by the same behavioral testing and dosing regimen. Evaluation was performed at Day -1 (pre-operation), Day 7, Day 21, Day 30, Day 32, Day 44, Day 46, Day 58, Day 60. This test assessed limb use asymmetry. Rats were placed in a transparent cylinder (20 cm in diameter and 30 cm in height) for 3-6 minutes. A mirror was placed behind the cylinder to determine forelimb movements when animal was turned away from the camera. […] Simultaneous use of both left and right forelimbs while contacting the wall during a full rear was also scored. A total number of 20 forelimb placings were counted during a trial. Data was expressed in terms of percent use of the non-impaired and or impaired forelimb relative to the total number of limb use observations for wall movements.

[3] = system: patients with multiple sclerosis; details: p<0.05; cited from earlier work
[4] = typical; (94 ng·mL^−1); cited from earlier work
[5] = Group I, D30, first dosing phase (high dose, inferred)
[6] = Group I, D32, first dosing phase (high dose, inferred)
[7] = Group I, D44, second dosing phase (low dose, inferred)
[8] = Group I, D46, second dosing phase (low dose, inferred)

## Nc1ccncc1 [4-AP, 4-aminopyridine]
[1]; [5]
  Weight (g), Mean: 453.1 g
[1]; [6]
  Weight (g), Mean: 436.3 g
[1]; [7]
  Weight (g), Mean: 476.2 g
[1]; [8]
  Weight (g), Mean: 471.1 g
[1]; Group II, D30, first dosing phase (low dose, inferred)
  Weight (g), Mean: 446.0 g
[1]; Group II, D32, first dosing phase (low dose, inferred)
  Weight (g), Mean: 438.1 g
[1]; Group II, D58, third dosing phase (high dose, inferred)
  Weight (g), Mean: 500.9 g
[1]; Group II, D60, third dosing phase (high dose, inferred)
  Weight (g), Mean: 483.0 g
[1]; Group III, D44, second dosing phase (high dose, inferred)
  Weight (g), Mean: 471.9 g
[1]; Group III, D46, second dosing phase (high dose, inferred)
  Weight (g), Mean: 451.0 g
[1]; Group III, D58, third dosing phase (low dose, inferred)
  Weight (g), Mean: 494.9 g
[1]; Group III, D60, third dosing phase (low dose, inferred)
  Weight (g), Mean: 485.1 g
[2]; [5]
  Cylinder Test (Total Movement), Mean: 9.47
[2]; [6]
  Cylinder Test (Total Movement), Mean: 16.20
[2]; [7]
  Cylinder Test (Total Movement), Mean: 39.20
[2]; [8]
  Cylinder Test (Total Movement), Mean: 23.87
[2]; Group II, D30, N 15
  Cylinder Test (Total Movement), Mean: 46.87
[2]; Group II, D32, N 15
  Cylinder Test (Total Movement), Mean: 36.20
[2]; Group II, D58, N 15
  Cylinder Test (Total Movement), Mean: 11.60
[2]; Group II, D60, N 15
  Cylinder Test (Total Movement), Mean: 12.93
[2]; Group III, D44, N 15
  Cylinder Test (Total Movement), Mean: 19.13
[2]; Group III, D46, N 15
  Cylinder Test (Total Movement), Mean: 18.73
[2]; Group III, D58, N 15
  Cylinder Test (Total Movement), Mean: 32.33
[2]; Group III, D60, N 15
  Cylinder Test (Total Movement), Mean: 26.67
[3]
  leg strength (LEMMT) relative to placebo: statistically significantly improved
[4]
  plasma concentrations obtained in clinical studies: < 1000 nM
